For two compounds, solubility in water and solubility results are on record in patent US11452726B2, “Salts of 2-fluoro-N-methyl-4-[7-(quinolin-6-yl-methyl)-imidazo[1,2-b][1,2,4]triazin-2-yl]benzamide and processes related to preparing the same” (Incyte Corporation, priority 2008, dated 2022).

The solubility is the dissolved amount per volume that the medium holds.

Structures are written as SMILES.

Series [1] can be described thus: Equilibrium solubility in aqueous solvents, concentration by HPLC. As to conditions: 25° C., mixing at least 12 hours, listed as dihydrochloric acid salt, dihydrochloride.
Procedure: (§1) The sample concentration was then determined by HPLC using a single point calibration.
Another series in a line: physchem. As to conditions: 25 °C, thermodynamic from solid.
The mark [2] stands for this setting: 0.1 N aqueous HCl, simulated gastric fluid.
Setting [3] is: pH 7.4 buffer, pH 7.4, aqueous buffer.
[4] abbreviates: pH 8.0 buffer, pH 8, aqueous buffer.

Procedure for physchem: as §1

Turning to `CNC(=O)c1ccc(-c2cnc3ncc(Cc4ccc5ncccc5c4)n3n2)cc1F.Cl.Cl` [Compound 21, 2-Fluoro-N-methyl-4-(7-(quinolin-6-ylmethyl)imidazo[1,2-b][1,2,4]triazin-2-yl)benzamide dihydrochloride], the solubility in water result in series [1] is reported as “approximately 4.5 mg/mL”. Further, the solubility in “physchem” (setting [2]) is around 24000 µg/mL; in the series “physchem” (setting [3]), 2 µg/mL; in the series “physchem” (setting [4]), 2 µg/mL; in “physchem” (water) it was around 4900 µg/mL.

Consider `CNC(=O)c1ccc(-c2cnc3ncc(Cc4ccc5ncccc5c4)n3n2)cc1F.O=S(=O)(O)c1ccccc1.O=S(=O)(O)c1ccccc1` [dibenzenesulfonic acid salt, 2-Fluoro-N-methyl-4-[7-(quinolin-6-ylmethyl)imidazolo[1,2-b][1,2,4]triazin-2-yl]benzamide dibenzenesulfonic acid salt], for which the solubility in the series “physchem” (setting [2]) is at least 29000 µg/mL; in the series “physchem” (setting [3]), 3 µg/mL; in the series “physchem” (setting [4]), 3 µg/mL; in the series “physchem” (water) it was around 3900 µg/mL.
